Data as given in patent publication US20090281114A1, “INDOLYLALKYL DERIVATIVES OF PYRIMIDINYLPIPERAZINE AND METABOLITES THEREOF FOR TREATMENT OF ANXIETY, DEPRESSION, AND SEXUAL DYSFUNCTION” (Fabre-Kramer Pharmaceuticals, Inc., priority 2008, published 2009).
Structures can show the parent of a compound that is named as a salt.

Key:
5-HT1D binding site = 5-HT1D binding site affinity (tritiated serotonin; method of Heuring and Peroutka with minor modifications); settings: in vitro
Experimental: Determination of 5-HT1D binding properties was accomplished employing methodology such as that described by Heuring and Peroutka, J. Neurosci., 7(3), 1987, 894-903; with only minor modifications. In vitro IC50 (nM) test values were determined for the compounds of this invention employing tritiated serotonin.

Row | Compound | melting point | IC50 (5-HT1D binding site) [nM]
1 | COc1cncnc1N1CCN(CCCc2c[nH]c3ccc(CNS(C)(=O)=O)cc23)CC1 (as salt: hydrochloride) (hydrate or solvate) [Example 31, 4-(5-Methoxy-4-pyrimidinyl)-1-[[5-[[(methylsulfonyl)amino]methyl]-1H-indol-3-yl]propyl]piperazine] | 204 to 206 °C | –
2 | COc1cncnc1N1CCN(CCCc2c[nH]c3ccc(N4CCCC4=O)cc23)CC1.O=C(O)C(=O)O | 100 to 101 °C | –
3 | CCS(=O)(=O)N(C)c1ccc2[nH]cc(CCCN3CCN(c4ncncc4OC)CC3)c2c1 (as salt: HCl) [Example 68] | 223 to 225 °C | –
4 | CCS(=O)(=O)N(C)c1ccc2[nH]cc(CCCN3CCN(c4ncncc4OC)C(C)C3)c2c1 (stereo not shown) (as salt: HCl) [Example 69] | 205 to 207 °C | –
5 | CCC(CCc1c[nH]c2ccccc12)N1CCN(c2ncncc2OC)CC1 (stereo not shown) [Example 54, 3-[3-[4-(5-Methoxy-4-pyrimidinyl)-1-piperazinyl]pentyl]indole] | – | 20.5
6 | CCOc1cncnc1N1CCN(CCCc2c[nH]c3ccccc23)CC1 [Example 52, 4-(5-Ethoxy-4-pyrimidinyl)-1-[3-(1H-indol-3-yl)propyl]piperazine hydrochloride hydrate] | – | 2
7 | COc1cncnc1N1CCN(CCCc2c[nH]c3ccc(CS(=O)(=O)N(C)C)cc23)CC1 (as salt: hydrochloride) (hydrate or solvate) [Example 30, 1-[3-[5-[[(Dimethylamino)sulfonyl]methyl]-1H-indol-3-yl]propyl]-4-(5-methoxy-4-pyrimidinyl)piperazine] | 210 °C (dec.) | –
8 | COc1cncnc1N1CCN(CCCc2c[nH]c3ccccc23)CC1C (stereo not shown) [Example 62] | – | 4.2
9 | CCS(=O)(=O)Nc1ccc2[nH]cc(CCCN3CCN(c4ncncc4OC)C(C)C3)c2c1 (stereo not shown) [Example 70, 1-[3-(5-Ethanesulfonylamino-1H-indol-3-yl)propyl]-4-(5-methoxy-4-pyrimidinyl)-3-methylpiperazine] | – | 17.1
10 | CCS(=O)(=O)N(C)c1ccc2[nH]cc(CCCN3CCN(c4ncncc4OC)CC3)c2c1 [Example 68] | – | 12.9
11 | CCS(=O)(=O)Nc1ccc2[nH]cc(CCCN3CCN(c4ncncc4OC)CC3)c2c1 [Example 67] | – | 13.7
12 | CCC(CCc1c[nH]c2ccccc12)N1CCN(c2ncncc2OC)CC1 (stereo not shown) (as salt: salt) [Example 54, 3-[3-[4-(5-Methoxy-4-pyrimidinyl)-1-piperazinyl]pentyl]indole] | 145 °C (dec.) | –
13 | CCS(=O)(=O)Nc1ccc2[nH]cc(CCCN3CCN(c4ncncc4OC)C(C)C3)c2c1 (stereo not shown) (as salt: HCl) (hydrate or solvate) [Example 70, 1-[3-(5-Ethanesulfonylamino-1H-indol-3-yl)propyl]-4-(5-methoxy-4-pyrimidinyl)-3-methylpiperazine] | 212 to 214 °C | –
14 | COc1cncnc1N1CCN(CCCc2c[nH]c3ccc(CCS(C)(=O)=O)cc23)CC1 [Example 50, 4-(5-Methoxy-4-pyrimidinyl)-1-[3-[5-[2-(methylsulfonyl)ethyl]-1H-indol-3-yl]propyl]piperazine] | 153 to 154 °C | –
15 | CCCCNC(=O)c1ccc2[nH]cc(CCCN3CCN(c4ncncc4OC)CC3)c2c1.Cl | 180 to 185 °C | –
16 | COc1cncnc1N1CCN(CCCc2c[nH]c3ccc(N(C)S(=O)(=O)C(F)(F)F)cc23)CC1 (as salt: salt) [Example 26, 1-[3-[5-[Methyl(trifluoromethanesulfonyl)amino]-1H-indol-3-yl]propyl]-4-(5-methoxy-4-pyrimidinyl)piperazine] | > 230 °C | –
17 | COc1cncnc1N1CCN(CCCc2c[nH]c3ccccc23)CC1C (stereo not shown) (as salt: HCl) [Example 62] | 185 °C (dec.) | –
18 | CCS(=O)(=O)N(C)c1ccc2[nH]cc(CCCN3CCN(c4ncncc4OC)C(C)C3)c2c1 (stereo not shown) [Example 69] | – | 19.1
19 | COc1cncnc1N1CCN(CCCc2c[nH]c3ccc(CCS(C)(=O)=O)cc23)CC1C (stereo not shown) (as salt: salt) [Example 51, 4-(5-Methoxy-4-pyrimidinyl)-1-[3-[5-[2-(methylsulfonyl)ethyl]-1H-indol-3-yl]propyl]-3-methylpiperazine] | 220 to 223 °C | –
20 | COc1cncnc1N1CCN(CCCc2c[nH]c3ccc(OCc4ccccc4)cc23)CC1 (as salt: HCl) (hydrate or solvate) [Example 72] | 180 °C (dec.) | –
21 | CCS(=O)(=O)N(Cc1ccccc1)Cc1ccc2[nH]cc(CCCN3CCN(c4ncncc4OC)CC3)c2c1 [Example 39, 4-(5-Methoxy-4-pyrimidinyl)-1-[[5-[[phenylmethyl(ethylsulfonyl)amino]-methyl]-1H-indol-3-yl]propyl]piperazine] | 73 to 75 °C | –
22 | CCS(=O)(=O)N(C)Cc1ccc2[nH]cc(CCCN3CCN(c4ncncc4OC)CC3)c2c1 [Example 38, 4-(5-Methoxy-4-pyrimidinyl)-1-[[5-[[methyl(ethylsulfonyl)amino]-methyl]-1H-indol-3-yl]propyl]piperazine] | 113 to 115 °C | –
23 | COc1cncnc1N1CCN(CCCc2c[nH]c3ccc(OCc4ccccc4)cc23)CC1 [Example 72] | – | 14.3
24 | COc1cncnc1N1CCN(CCCc2c[nH]c3c(F)ccc(F)c23)CC1 [Example 75] | 160 to 165 °C | 5.1
25 | COc1cncnc1N1CCN(CCC(C)c2c[nH]c3ccccc23)CC1 (stereo not shown) [Example 53, 1-[3-(1H-indol-3-yl)butyl]-4-(5-methoxy-4-pyrimidinyl)piperazine] | – | 5
26 | CCOc1cncnc1N1CCN(CCCc2c[nH]c3ccccc23)CC1.Cl.O (hydrate or solvate) [Example 52, 4-(5-Ethoxy-4-pyrimidinyl)-1-[3-(1H-indol-3-yl)propyl]piperazine hydrochloride hydrate] | > 230 °C | –
27 | COc1cncnc1N1CCN(CCC(C)c2c[nH]c3ccccc23)CC1 (stereo not shown) (as salt: hydrochloride) [Example 53, 1-[3-(1H-indol-3-yl)butyl]-4-(5-methoxy-4-pyrimidinyl)piperazine] | 169 to 172 °C (dec.) | –

Now from value to molecule:

Row | melting point | IC50 (5-HT1D binding site) [nM] | Compound
28 | – | 0.8 | COc1cncnc1N1CCN(CCCc2c[nH]c3ccc(O)cc23)CC1 [Example 55, 1-[3-(5-Hydroxy-1H-indol-3-yl)propyl]-4-(5-methoxy-4-pyrimidinyl)piperazine]
29 | 119 to 122 °C | – | COc1cncnc1N1CCN(CCCc2c[nH]c3ccc(F)cc23)CC1 (as salt: hydrochloride) [Example 60, 3-(3-(4-(5-methoxy-4-pyrimidinyl)-1-piperazinyl)propyl)-5-fluoro-1H-indole hydrochloride]
30 | 215 °C | – | COc1cncnc1N1CCN(CCCc2c[nH]c3ccc(O)cc23)CC1 (as salt: hydrochloride) [Example 55, 1-[3-(5-Hydroxy-1H-indol-3-yl)propyl]-4-(5-methoxy-4-pyrimidinyl)piperazine]
31 | > 250 °C (dec.) | – | COc1cncnc1N1CCN(CCCc2c[nH]c3c(F)cc(F)cc23)CC1 (as salt: HCl) [Example 76]
32 | – | 4.9 | COc1cncnc1N1CCN(CCCc2c[nH]c3ccc(N(C)S(C)(=O)=O)cc23)CC1 [Example 65]
33 | – | 1.1 | COc1ccc2[nH]cc(CCCN3CCN(c4ncncc4OC)CC3)c2c1 [Example 73]
34 | – | 8.1 | COc1cncnc1N1CCN(CCCc2c[nH]c3c(F)cc(F)cc23)CC1 [Example 76]
35 | 150 to 152 °C | – | COc1cncnc1N1CCN(CCCc2c[nH]c3ccc(NS(C)(=O)=O)cc23)CC1 (as salt: HCl) [Example 63]
36 | 227 to 230 °C | – | COc1cncnc1N1CCN(CCCc2c[nH]c3ccc(N(C)S(C)(=O)=O)cc23)CC1 (as salt: HCl) [Example 65]
37 | 112 to 114 °C | 2.2 | CCOc1ccc2[nH]cc(CCCN3CCN(c4ncncc4OC)CC3)c2c1 [Example 71]
38 | – | 3 | COc1cncnc1N1CCN(CCCc2c[nH]c3ccc(F)cc23)CC1 [Example 60, 3-(3-(4-(5-methoxy-4-pyrimidinyl)-1-piperazinyl)propyl)-5-fluoro-1H-indole hydrochloride]
39 | 169 to 174 °C | – | COc1cncnc1N1CCN(CCCc2c[nH]c3ccc(CNC(C)=O)cc23)CC1 (hydrate or solvate) [Example 40, 1-[[5-[[(Acetyl)amino]methyl]-1H-indol-3-yl]propyl]-4-(5-methoxy-4-pyrimidinyl)piperazine]
40 | 140 to 145 °C | – | CCS(=O)(=O)Nc1ccc2[nH]cc(CCCN3CCN(c4ncncc4OC)CC3)c2c1 (as salt: HCl) [Example 67]
41 | 192 °C (dec.) | – | COc1cncnc1N1CCN(CCCc2c[nH]c3ccc(N)cc23)CC1 (as salt: salt) [Example 43, 3-[3-[4-(5-Methoxy-4-pyrimidinyl)-1-piperazinyl]propyl]-5-aminoindole]
42 | 102 to 104 °C | 29 | COc1cncnc1N1CCN(CCCc2c[nH]c3cc(F)c(F)cc23)CC1 [Example 74]
43 | 198 to 200 °C (dec.) | – | COc1cncnc1N1CCN(CCCc2c[nH]c3ccc(OCC#N)cc23)CC1 (as salt: hydrochloride) [Example 45, 3-[3-[4-(5-Methoxy-4-pyrimidinyl)-1-piperazinyl]propyl]-5-(cyanomethyl)oxyindole]
44 | – | 5.2 | COc1cncnc1N1CCN(CCCc2c[nH]c3ccc(NS(C)(=O)=O)cc23)CC1 [Example 63]
45 | 215 to 217 °C (dec.) | – | COc1cncnc1N1CCN(CCCc2c[nH]c3ccc(C(C)=O)cc23)CC1.Cl
46 | 130 to 150 °C (dec.) | – | COc1ccc2[nH]cc(CCCN3CCN(c4ncncc4OC)CC3)c2c1 (as salt: HCl) [Example 73]
